Experiments:
[1] = tested on: animal models of pain; settings: acute thermal, persistent, inflammatory and neuropathic pain models; cited from earlier work
[2] = molecular target: rat CB2 receptors (Rattus norvegicus (Rat), UniProt Q9QZN9); assay: rat CB2 radioligand binding assay ([3H]CP 55,940 competition); settings: HEK293 membranes, 0.5 nM [3H]CP 55,940
In short: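 Membranes from HEK293 cells stably expressing rat CB2 (20 μg protein/well) were incubated 45 min at 30 °C with 0.5 nM [3H]CP 55,940 and five displacer concentrations, in pH 7.4 Tris buffer with 0.5 mg/mL BSA. Bound radioactivity was measured by filtration. Nonspecific binding was defined with 10 μM unlabeled CP 55,940.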

[3] = molecular target: rat CB1 receptors (HEK cells) (Rattus norvegicus (Rat), UniProt P20272); assay: rat CB1 cyclase functional assay (HitHunter cAMP); type: cell-based
[4] = molecular target: rat CB2 receptors (HEK cells) (Rattus norvegicus (Rat), UniProt Q9QZN9); assay: rat CB2 cyclase functional assay (HitHunter cAMP); type: cell-based; settings: HEK cells, forskolin 18 μM; read-out: rat CB2 cyclase (EC50)
[5] = molecular target: human CB2 receptors (Homo sapiens (Human), UniProt P34972); assay: human CB2 radioligand binding assay ([3H]CP 55,940 competition)
In short: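 Displacement of 0.5 nM [3H]CP 55,940 over 0.01 nM-10 μM test compound, measured on human CB2 membranes from stably transfected HEK293 cells. Incubation 90 min at 30 °C in Tris/EDTA/MgCl2/BSA, pH 7.4, then filter-bound radioactivity counted; 10 μM unlabeled CP 55,940 defined nonspecific binding.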

[6] = tested on: rodent models of pain; settings: neuropathic, incisional, chronic and acute inflammatory pain; cited from earlier work
[7] = tested on: rat formalin model of persistent pain; settings: cited from earlier work
[8] = tested on: microglial; settings: in vitro; cited from earlier work
[9] = tested on: atherosclerotic lesions; settings: low doses, apolipoprotein E knockout mice; cited from earlier work
[10] = tested on: ovariectomy-induced bone loss; settings: mice, model for post-menopausal osteoporosis; cited from earlier work

rat CB1 receptors (HEK cells), sequence (P20272 whole entry): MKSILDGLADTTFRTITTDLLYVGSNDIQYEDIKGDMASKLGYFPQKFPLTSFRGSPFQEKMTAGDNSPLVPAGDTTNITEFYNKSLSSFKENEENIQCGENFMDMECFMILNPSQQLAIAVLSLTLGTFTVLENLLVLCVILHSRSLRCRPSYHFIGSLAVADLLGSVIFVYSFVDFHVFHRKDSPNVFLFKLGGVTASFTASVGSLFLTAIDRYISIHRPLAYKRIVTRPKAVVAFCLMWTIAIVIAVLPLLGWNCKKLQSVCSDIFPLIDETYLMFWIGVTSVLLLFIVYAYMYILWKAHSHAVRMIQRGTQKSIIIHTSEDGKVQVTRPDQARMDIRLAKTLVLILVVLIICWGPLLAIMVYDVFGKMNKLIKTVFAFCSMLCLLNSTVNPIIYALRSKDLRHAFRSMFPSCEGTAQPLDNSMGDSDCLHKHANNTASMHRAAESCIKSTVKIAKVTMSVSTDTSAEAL
human CB2 receptors, sequence (P34972 whole entry): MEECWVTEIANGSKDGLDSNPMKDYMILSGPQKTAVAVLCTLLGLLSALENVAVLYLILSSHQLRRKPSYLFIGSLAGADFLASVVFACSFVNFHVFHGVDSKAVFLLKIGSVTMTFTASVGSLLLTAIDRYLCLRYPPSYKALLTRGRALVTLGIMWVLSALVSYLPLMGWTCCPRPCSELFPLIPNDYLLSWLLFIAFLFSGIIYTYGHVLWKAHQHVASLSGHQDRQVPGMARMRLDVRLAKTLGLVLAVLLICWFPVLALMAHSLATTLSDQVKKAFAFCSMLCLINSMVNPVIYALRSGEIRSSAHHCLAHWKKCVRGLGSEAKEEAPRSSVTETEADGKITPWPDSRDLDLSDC

CN1CCCCC1Cn1cc(C(=O)c2cc([N+](=O)[O-])ccc2I)c2ccccc21 (stereo not shown) [AM-1241]
analgesic efficacy [1]: robust analgesic efficacy

CC(C)(C)c1cn(C[C@H]2CCCO2)/c(=N/C(=O)c2cc(C(F)(F)F)ccc2OC[C@H](N)CO)s1 [Example 69, 2-{[(2R)-2-amino-3-hydroxypropyl]oxy}-N-[(2Z)-5-tert-butyl-3-[(2R)-tetrahydrofuran-2-ylmethyl]-1,3-thiazol-2(3H)-ylidene]-5-(trifluoromethyl)benzamide]
Ki [2]: 0.9 nM
EC50 [3]: 1610 nM
EC50 [4]: 0.14 nM
Ki [5]: 3.6 nM

COc1ccc2c(c1)c(CCN1CCOCC1)c(C)n2C(=O)c1cccc(Cl)c1Cl [GW405833]
efficacy in pain models [6]: efficacious

CCCCCCC(C)(C)c1cc(OC)c([C@@H]2C=C(CO)[C@@H]3C[C@H]2C3(C)C)c(OC)c1 [HU-308]
antinociceptive response [7]: elicits an antinociceptive response

CCCC(C)(C)c1ccc2c(c1)OC(C)(C)[C@@H]1CC=C(C)C[C@@H]21 [JWH-133]
effect on β-amyloid-induced microglial activation and neurotoxicity [8]: abrogated β-amyloid-induced microglial activation and neurotoxicity

(−)-Δ^9-Tetrahydrocannabinol [THC]
effect on progression of atherosclerotic lesions [9]: slowed the progression of atherosclerotic lesions

SR144528
effect on osteoclast activity and bone loss [10]: inhibit osteoclast activity and reverse ovariectomy-induced bone loss
